What was measured:
Influenza B virus [1] = assay: Antiviral activity against Influenza B virus (B/Hong Kong/05/1972) harboring wild type M2 channel infected in MDCK cells assessed as reduction of cytopathic effect after 72 hrs by MTS assay; format: functional, cell-based; conditions: B/Hong Kong/05/1972, MDCK
Influenza A virus [2] = assay: Antiviral activity against Influenza A virus (A/Puerto Rico/8/34(H1N1)) harboring M2 channel S31N and V27T mutant infected in MDCK cells assessed as reduction of cytopathic effect after 72 hrs by microsocopic analysis; format: functional, organism-based, A/Puerto Rico/8/1934(H1N1)
H3N2 subtype [3] = assay: Antiviral activity against Influenza A virus (A/Hong Kong/7/1987(H3N2)) harboring wild type M2 channel infected in MDCK cells assessed as reduction of cytopathic effect after 72 hrs by MTS assay; format: functional, organism-based
Influenza B virus [4] = assay: Antiviral activity against Influenza B virus (B/Hong Kong/05/1972) harboring wild type M2 channel infected in MDCK cells assessed as reduction of cytopathic effect after 72 hrs by microsocopic analysis; format: functional, cell-based; conditions: B/Hong Kong/05/1972, MDCK
Influenza A virus [5] = assay: Antiviral activity against Influenza A virus (A/Puerto Rico/8/34(H1N1)) harboring M2 channel S31N and V27T mutant infected in MDCK cells assessed as reduction of cytopathic effect after 72 hrs by MTS assay; format: functional, organism-based, A/Puerto Rico/8/1934(H1N1)
H3N2 subtype [6] = assay: Antiviral activity against Influenza A virus (A/Hong Kong/7/1987(H3N2)) harboring wild type M2 channel infected in MDCK cells assessed as reduction of cytopathic effect after 72 hrs by microsocopic analysis; format: functional, organism-based
H3N2 subtype [7] = assay: Antiviral activity against Influenza A virus (A/Hong Kong/7/1987(H3N2)) harboring wild type M2 channel infected in MDCK cells assessed as concentration required to 2 log10 reduction of virus yield after 24 hrs by RT-PCR analysis; format: functional

`CC12CC34CNCC3(C1)CC2(C)C4` was tested, and the EC50 (Influenza B virus [1]) was > 100 µM, the EC50 (Influenza A virus [2]) was > 100 µM and the EC50 (H3N2 subtype [3]) was > 100 µM. The EC50 (Influenza B virus [4]) was > 100 µM, the EC50 (Influenza A virus [5]) was > 100 µM and the EC50 (H3N2 subtype [6]) was 1.6 µM.
With `CN1CC23CC4(C)CC2(C1)CC4(C)C3` the EC50 (Influenza B virus [1]) was > 100 µM, the EC50 (Influenza A virus [2]) was > 100 µM and the EC50 (H3N2 subtype [3]) was > 100 µM. The EC50 (Influenza B virus [4]) was > 100 µM, the EC50 (Influenza A virus [5]) was > 100 µM and the EC50 (H3N2 subtype [6]) was > 100 µM.
For `CC12CC34CN(C(=N)N)CC3(C1)CC2(C)C4`, the EC50 (Influenza B virus [1]) was > 100 µM, the EC50 (Influenza A virus [2]) was > 100 µM and the EC50 (H3N2 subtype [3]) was > 100 µM. The EC50 (Influenza B virus [4]) was > 100 µM, the EC50 (Influenza A virus [5]) was > 100 µM and the EC50 (H3N2 subtype [6]) was > 100 µM.
For `C1NCC23CC4CC12CC4C3`, the EC50 (Influenza B virus [1]) was > 100 µM, the EC50 (Influenza A virus [2]) was > 100 µM and the EC50 (H3N2 subtype [3]) was 7.2 µM. For the same compound, the EC50 (Influenza B virus [4]) was > 100 µM, the EC50 (Influenza A virus [5]) was > 100 µM and the EC50 (H3N2 subtype [6]) was 7.9 µM.
With `CN1CC23CC4CC2(CC4C3)C1` the EC50 (Influenza B virus [1]) was > 100 µM, the EC50 (Influenza A virus [2]) was > 100 µM and the EC50 (H3N2 subtype [3]) was > 100 µM. For the same compound, the EC50 (Influenza B virus [4]) was > 100 µM, the EC50 (Influenza A virus [5]) was > 100 µM and the EC50 (H3N2 subtype [6]) was > 100 µM.
With `N=C(N)N1CC23CC4CC2(CC4C3)C1` the EC50 (Influenza B virus [1]) was > 50 µM, the EC50 (Influenza A virus [2]) was > 50 µM and the EC50 (H3N2 subtype [3]) was > 50 µM. The EC50 (Influenza B virus [4]) was > 50 µM, the EC50 (Influenza A virus [5]) was > 50 µM and the EC50 (H3N2 subtype [6]) was > 50 µM.
`CCC12CC34CNCC3(C1)CC2(CC)C4` was tested, and the EC50 (Influenza B virus [1]) was > 100 µM, the EC50 (Influenza A virus [2]) was > 100 µM and the EC50 (H3N2 subtype [3]) was > 100 µM. For the same compound, the EC50 (Influenza B virus [4]) was > 100 µM, the EC50 (Influenza A virus [5]) was > 100 µM and the EC50 (H3N2 subtype [6]) was > 100 µM.
`CCC12CC34CN(C(=N)N)CC3(C1)CC2(CC)C4` was tested, and the EC50 (Influenza B virus [1]) was > 100 µM, the EC50 (Influenza A virus [2]) was > 100 µM and the EC50 (H3N2 subtype [3]) was > 100 µM. For the same compound, the EC50 (Influenza B virus [4]) was > 100 µM, the EC50 (Influenza A virus [5]) was > 100 µM and the EC50 (H3N2 subtype [6]) was > 100 µM.
For `C1CCC23CC45CNCC4(CC2(C1)C5)C3`, the EC50 (Influenza B virus [1]) was > 100 µM, the EC50 (Influenza A virus [2]) was > 100 µM and the EC50 (H3N2 subtype [3]) was > 100 µM. For the same compound, the EC50 (Influenza B virus [4]) was > 100 µM, the EC50 (Influenza A virus [5]) was > 100 µM and the EC50 (H3N2 subtype [6]) was > 100 µM.
For `N=C(N)N1CC23CC45CCCCC4(C2)CC3(C1)C5`, the EC50 (Influenza B virus [1]) was > 100 µM, the EC50 (Influenza A virus [2]) was > 100 µM and the EC50 (H3N2 subtype [3]) was > 100 µM. For the same compound, the EC50 (Influenza B virus [4]) was > 100 µM, the EC50 (Influenza A virus [5]) was > 100 µM and the EC50 (H3N2 subtype [6]) was > 100 µM.
With `NC12CC3CC(CC(C3)C1)C2` [AMANTADINE] the EC50 (Influenza B virus [1]) was > 500 µM, the EC50 (Influenza A virus [2]) was 34 µM and the EC50 (H3N2 subtype [3]) was 0.82 µM. The EC50 (Influenza B virus [4]) was > 500 µM, the EC50 (Influenza A virus [5]) was 38 µM and the EC50 (H3N2 subtype [6]) was 0.84 µM.
For `CC(N)C12CC3CC(CC(C3)C1)C2` (stereo not drawn) [RIMANTADINE], the EC50 (Influenza B virus [1]) was > 500 µM, the EC50 (Influenza A virus [2]) was 18 µM and the EC99 (H3N2 subtype [7]) was >4 µM. The EC50 (H3N2 subtype [3]) was 0.12 µM, the EC50 (Influenza B virus [4]) was > 500 µM and the EC50 (Influenza A virus [5]) was 4.3 µM. For the same compound, the EC50 (H3N2 subtype [6]) was 0.62 µM.
